Laboratory results as given in ChEMBL document CHEMBL1129833, “N-Phthalimidoalkyl derivatives of 2-carbomethoxy-3-(4-iodophenyl)tropane (-CIT): Brain monoamine transporter affinity” (Bioorg Med Chem Lett, 1997).

Experiments:
Type in all cases: tissue-based
[1] = target: Sodium-dependent serotonin transporter (Rattus norvegicus, UniProt P31652); experiment: In vitro binding affinity of compound for Serotonin transporter with [3H]- paroxetine as radioligand in corpus striatum tissue from rat forebrain
[2] = target: Norepinephrine transporter (Rattus norvegicus, UniProt Q9WTR4); experiment: In vitro binding affinity of compound for Norepinephrine (NE) transporter with [3H]- […] as radioligand in corpus striatum tissue from rat forebrain
[3] = target: Sodium-dependent dopamine transporter (Rattus norvegicus, UniProt P23977); experiment: In vitro binding affinity of compound for Dopamine transporter with [3H]- GBR-12935 as radioligand in corpus striatum tissue from rat forebrain
Sodium-dependent dopamine transporter, sequence (P23977 whole entry): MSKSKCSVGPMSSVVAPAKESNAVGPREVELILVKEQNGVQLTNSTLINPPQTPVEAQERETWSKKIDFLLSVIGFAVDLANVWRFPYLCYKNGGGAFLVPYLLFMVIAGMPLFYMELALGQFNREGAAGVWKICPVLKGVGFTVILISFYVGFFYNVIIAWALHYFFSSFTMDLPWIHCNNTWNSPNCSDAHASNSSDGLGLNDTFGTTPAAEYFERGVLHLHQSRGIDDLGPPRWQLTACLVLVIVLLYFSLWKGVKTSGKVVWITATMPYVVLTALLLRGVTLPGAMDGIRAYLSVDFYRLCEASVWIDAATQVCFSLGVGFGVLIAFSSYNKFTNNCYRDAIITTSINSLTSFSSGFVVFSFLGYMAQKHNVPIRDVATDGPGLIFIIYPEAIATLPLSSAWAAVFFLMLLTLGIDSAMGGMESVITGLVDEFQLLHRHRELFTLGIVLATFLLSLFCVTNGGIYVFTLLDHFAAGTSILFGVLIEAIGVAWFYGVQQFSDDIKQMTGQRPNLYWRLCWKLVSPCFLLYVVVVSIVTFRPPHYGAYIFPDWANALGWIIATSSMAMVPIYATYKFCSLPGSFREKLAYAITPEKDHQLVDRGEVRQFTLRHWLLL

Norepinephrine transporter, sequence (Q9WTR4 whole entry): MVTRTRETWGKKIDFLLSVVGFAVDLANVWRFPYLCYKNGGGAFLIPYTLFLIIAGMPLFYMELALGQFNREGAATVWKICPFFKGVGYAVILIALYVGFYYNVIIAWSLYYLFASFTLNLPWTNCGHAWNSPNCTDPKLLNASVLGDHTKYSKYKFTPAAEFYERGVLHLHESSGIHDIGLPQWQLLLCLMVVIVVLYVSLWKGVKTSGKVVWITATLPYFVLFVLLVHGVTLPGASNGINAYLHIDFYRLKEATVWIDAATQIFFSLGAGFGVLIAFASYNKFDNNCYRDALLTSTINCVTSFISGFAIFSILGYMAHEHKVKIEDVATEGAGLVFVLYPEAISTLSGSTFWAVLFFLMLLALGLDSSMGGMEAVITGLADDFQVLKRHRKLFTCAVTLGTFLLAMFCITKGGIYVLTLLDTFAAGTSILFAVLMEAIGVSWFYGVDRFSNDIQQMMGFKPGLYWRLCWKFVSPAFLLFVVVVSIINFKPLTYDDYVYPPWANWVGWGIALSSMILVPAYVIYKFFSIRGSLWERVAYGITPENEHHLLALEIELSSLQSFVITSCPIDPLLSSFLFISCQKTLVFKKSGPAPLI
Sodium-dependent serotonin transporter, sequence (P31652 whole entry): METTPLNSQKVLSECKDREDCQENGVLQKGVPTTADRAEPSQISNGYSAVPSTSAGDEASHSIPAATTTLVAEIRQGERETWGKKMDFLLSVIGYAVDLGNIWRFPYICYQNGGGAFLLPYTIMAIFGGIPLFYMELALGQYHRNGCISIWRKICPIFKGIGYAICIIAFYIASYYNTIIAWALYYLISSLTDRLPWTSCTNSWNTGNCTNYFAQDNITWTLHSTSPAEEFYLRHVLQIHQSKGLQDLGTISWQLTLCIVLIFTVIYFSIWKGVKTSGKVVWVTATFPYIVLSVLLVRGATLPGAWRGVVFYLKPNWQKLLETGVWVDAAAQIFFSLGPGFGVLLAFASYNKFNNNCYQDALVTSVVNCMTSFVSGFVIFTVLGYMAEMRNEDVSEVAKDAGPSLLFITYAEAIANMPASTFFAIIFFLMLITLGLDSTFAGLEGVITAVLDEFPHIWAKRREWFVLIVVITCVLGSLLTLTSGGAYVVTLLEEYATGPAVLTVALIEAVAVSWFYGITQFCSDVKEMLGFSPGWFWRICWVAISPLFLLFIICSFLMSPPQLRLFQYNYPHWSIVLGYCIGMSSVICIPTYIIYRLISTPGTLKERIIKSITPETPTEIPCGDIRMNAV

Row | Structure (SMILES) | Ki [1] [nM] | Ki [2] [nM] | Ki [3] [nM]
1 | COC(=O)C1C2CC[C@H](C[C@@H]1c1ccc(I)cc1)N2C (stereo partly drawn) | 0.44 |  | 
2 | COC(=O)C1C2CC[C@H](C[C@@H]1c1ccc(I)cc1)N2CCCCCN1C(=O)c2ccccc2C1=O (stereo partly drawn) | 0.34 | 60 | 2.4
3 | COC(=O)C1C2CC[C@H](C[C@@H]1c1ccc(I)cc1)N2CCN1C(=O)c2ccccc2C1=O (stereo partly drawn) | 0.84 | 441 | 4.23
4 | COC(=O)C1C2CC[C@H](C[C@@H]1c1ccc(I)cc1)N2CCCCCCCCN1C(=O)c2ccccc2C1=O (stereo partly drawn) | 0.2 | 75 | 2.98
5 | COC(=O)C1C2CC[C@@H](C[C@@H]1c1ccc(I)cc1)N2CCCCN1C(=O)c2ccccc2C1=O (stereo partly drawn) | 0.21 | 190 | 2.38
